Columns and labels:
[1] = biological target: Δ^5 -3-ketosteroid isomerase (Comamonas testosteroni, UniProt P00947); assay: inhibition of isomerase by allenic ketones, pseudo first order conditions; assay type: biochemical, Pseudomonas testosteroni; settings: for half life for loss of enzyme activity / isomerisation of the allenic ketone under assay conditions: allenic ketone 200 μM, 1 mM phosphate buffer, pH = 7; for isomerisation of the allenic ketone under assay conditions: isomerase
From the text: As noted above, the acetylenic compounds of the invention, e.g. estryne and pregnyne, are converted into the corresponding conjugated allenic ketones which then react irreversibly with the enzyme. These allenic ketones are also novel and constitute an important embodiment of the invention. The allenic ketones derived from estryne are 6β(H)-5,10-secoestra-4,5-diene-3,10,17-trione and 6α(H)-5,10-secoestra-4,5-diene-3,10,17-trione. These allenic ketones have been tested as inhibitors of isomerase and have been found effective in this regard.

[2] = tested on: ventral prostate and dorsal lateral prostate; assay: effects of 6β(H)-allenic ketone on intact male Sprague-Dawley rats: body and prostate weights; assay type: in vivo; settings: 0.6mg in propylene glycol (0.2ml) daily for 7 days, i.p.
Description: Effects of 6β(H)-5,10-Seco-19-norestra-4,5-diene-3,10,17-trione on intact male Sprague-Dawley rats
The compound (0.6mg) dissolved in propylene glycol (0.2ml) was administered daily for 7 days by the intraperitoneal route. The experimental group and control group each comprised 5 animals; and weghts of animals as well the wet tissue weights of ventral prostate and dorsal lateral prostate are averaged for each group.

immature uterus = assay: study of estrogenic activity (uterine weight of immature mice); settings: same dosage schedule as estryne
Description: The animals were housed in a temperature controlled room under a constant lighting schedule and maintained on a diet of Charles River Rat Formula and water ad libitum. The diet of the hypophy-sectomized animals was supplemented with organges.
On the fourth day the uteri were removed and weighed.
Thus, immature female mice received estryne at doses up to a maximum of 100 μg total dose over three days, and the wet weight of the uteri were determined.

[3] = tested on: endogenous androgen biosynthesis; assay: study in intact male rats: weights of sex accessory tissue and other organs; assay type: in vivo, male Sprague-Dawley rats
Description: Studies with intact male Sprague-Dawley rats (300g body weight) are illustrated for compounds (1) and (2).
Similarly, compound (2), […] rats at a dosage of 20mg per kilo for 7 days produced 20% reduction in weight of the ventral prostate and 28% reduction of the dorsal lateral prostate.
The following data illustrates the inhibiting effect of estryne and pregnyne on Δ^5 -3-ketosteroid isomerase (EC 5.3.3.1) as evidenced by a depression of the wet weight of the sex accessory tissue in the mature male rat treated with the estryne and pregnyne.
A. Male rats were used to assess the effect of estryne on endogenous androgen biosynthesis at varying doses (1-20 mg/kg body weight). […] On the eighth day the animals were sacrificed and the ventral prostate, dorsal lateral prostate, seminal vesicles, testes, kidneys, and adrenals were removed and weighed. Samples of each tissue were preserved in 10% buffered formalin for histological examination.
B. Male rats were treated with 19-norpregnyne by a regimen exactly as described for the estryne.

[4] = listed as 6β(H)-5,10-secoestra-4,5-diene-2,10,17-trione

Δ^5 -3-ketosteroid isomerase, sequence (P00947 whole entry, stated change not applied): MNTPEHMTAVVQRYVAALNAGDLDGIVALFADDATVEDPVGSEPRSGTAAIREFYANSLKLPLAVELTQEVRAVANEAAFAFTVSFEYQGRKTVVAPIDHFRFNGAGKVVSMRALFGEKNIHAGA

C[C@]12CC[C@@H]3C(=O)CCC(=O)C=C=CC[C@H]3[C@@H]1CCC2=O [6α(H)-5,10-secoestra-4,5-diene-3,10,17-trione]
half life for loss of enzyme activity [1]: 11 min | isomerisation of the allenic ketone under assay conditions [1]: partially converted to the β-isomer

C[C@]12CC[C@@H]3C(=O)CCC(=O)C=C=CC[C@H]3[C@@H]1CCC2=O [6β(H)-5,10-secoestra-4,5-diene-3,10,17-trione]
half life for loss of enzyme activity [1, 4]: 9 min | inhibition of isomerase ([1]; in words): effective | isomerisation of the allenic ketone under assay conditions [1, 4]: partially converted to the 6α isomer | Wt. of Dorsal Lateral Prostate ([2]; control 299 mg): 235 mg | Wt. of Ventral Prostate ([2]; control 574 mg): 488 mg | Wt. of Animals ([2]; control 388 g): 382 g

C[C@]12CC[C@@H]3c4ccc(O)cc4CC[C@H]3[C@@H]1CC[C@@H]2O [17β-estradiol]
dose giving maximum stimulation (uterine weight) (immature uterus): about 8 μg | lowest dose giving a positive response (uterine weight) (immature uterus; "as low as"): 0.67 µg

C[C@]12CC[C@@H]3C(=O)CCC(=O)CC#CC[C@H]3[C@@H]1CCC2=O [Compound 5, 5,10-secoestr-5-yne-3,10,17-trione]
reduction in weight of the ventral prostate ([3]; 13mg per kilo per day, s.c. in sesame oil, 7 days): 30% | Average Weight of Ventral Prostate ([3]; 13mg/Kg (so in the source) in propylene glycol (0.2ml) per day for 7 days, i.p., control 421 mg): 302 mg | Average Weight of Ventral Prostate ([3]; 13mg/Kg in sesame oil (0.2ml) per day for 7 days, s.c., control 238 mg): 167 mg
